Legend:
Assay in all cases: KINOMEscan competition binding
Conditions in all cases: compound 10.0 µM
MAP2K6 (human) = MAP2K6 (human) (UniProt P52564)
CDC2L2 (human) = CDC2L2 (human) (UniProt Q9UQ88)
EPHB1 (human) = EPHB1 (human) (UniProt P54762)
STK24 (human) = STK24 (human) (UniProt Q9Y6E0)
STK11 (human) = STK11 (human) (UniProt Q15831)
FGFR1 (human) = FGFR1 (human) (UniProt P11362)
RAF1 (human) = RAF1 (human) (UniProt P04049)
ACVR2A (human) = ACVR2A (human) (UniProt P27037)
AKT1 (human) = AKT1 (human) (UniProt P31749)
STK25 (human) = STK25 (human) (UniProt O00506)
MYLK3 (human) = MYLK3 (human) (UniProt Q32MK0)
CAMK2A (human) = CAMK2A (human) (UniProt Q9UQM7)
DMPK (human) = DMPK (human) (UniProt Q09013)
CDK14 (human) = CDK14 (human) (UniProt O94921)
TNIK (human) = TNIK (human) (UniProt Q9UKE5)
SRC (human) = SRC (human) (UniProt P12931)
AKT3 (human) = AKT3 (human) (UniProt Q9Y243)
DSTYK (human) = DSTYK (human) (UniProt Q6XUX3)
RIPK4 (human) = RIPK4 (human) (UniProt P57078)
NEK4 (human) = NEK4 (human) (UniProt P51957)
PKMYT1 (human) = PKMYT1 (human) (UniProt Q99640)
MELK (human) = MELK (human) (UniProt Q14680)
MAP4K5 (human) = MAP4K5 (human) (UniProt Q9Y4K4)
ABL2 (human) = ABL2 (human) (UniProt P42684)
ULK2 (human) = ULK2 (human) (UniProt Q8IYT8)
PIK3C2G (human) = PIK3C2G (human) (UniProt O75747)
SRPK3 (human) = SRPK3 (human) (UniProt Q9UPE1)
MAPK1 (human) = MAPK1 (human) (UniProt P28482)
CLK3 (human) = CLK3 (human) (UniProt P49761)
WEE2 (human) = WEE2 (human) (UniProt P0C1S8)
[1] = tested on: RET (human), P07949 [V804L]
BMPR1B (human) = BMPR1B (human) (UniProt O00238)
PAK3 (human) = PAK3 (human) (UniProt O75914)
NIM1 (human) = NIM1 (human) (UniProt Q8IY84)
CSNK1E (human) = CSNK1E (human) (UniProt P49674)
PAK1 (human) = PAK1 (human) (UniProt Q13153)
ERBB4 (human) = ERBB4 (human) (UniProt Q15303)
GSK3A (human) = GSK3A (human) (UniProt P49840)
EPHB4 (human) = EPHB4 (human) (UniProt P54760)
AXL (human) = AXL (human) (UniProt P30530)
DYRK1B (human) = DYRK1B (human) (UniProt Q9Y463)

Chain of STK24 (human) (Q9Y6E0 whole entry, looked up): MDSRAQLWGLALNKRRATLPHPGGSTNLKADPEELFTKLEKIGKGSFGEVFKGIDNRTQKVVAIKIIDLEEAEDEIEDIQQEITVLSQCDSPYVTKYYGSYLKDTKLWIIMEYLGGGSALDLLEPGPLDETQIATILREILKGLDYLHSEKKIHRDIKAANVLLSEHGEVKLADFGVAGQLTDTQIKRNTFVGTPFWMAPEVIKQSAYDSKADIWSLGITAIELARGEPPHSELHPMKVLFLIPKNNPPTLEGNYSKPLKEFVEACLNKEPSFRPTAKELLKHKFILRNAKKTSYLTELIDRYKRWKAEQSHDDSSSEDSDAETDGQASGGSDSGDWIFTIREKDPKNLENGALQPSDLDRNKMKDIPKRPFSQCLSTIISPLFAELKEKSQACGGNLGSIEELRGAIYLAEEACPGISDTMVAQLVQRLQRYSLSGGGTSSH
Chain of PAK1 (human) (Q13153 whole entry, looked up): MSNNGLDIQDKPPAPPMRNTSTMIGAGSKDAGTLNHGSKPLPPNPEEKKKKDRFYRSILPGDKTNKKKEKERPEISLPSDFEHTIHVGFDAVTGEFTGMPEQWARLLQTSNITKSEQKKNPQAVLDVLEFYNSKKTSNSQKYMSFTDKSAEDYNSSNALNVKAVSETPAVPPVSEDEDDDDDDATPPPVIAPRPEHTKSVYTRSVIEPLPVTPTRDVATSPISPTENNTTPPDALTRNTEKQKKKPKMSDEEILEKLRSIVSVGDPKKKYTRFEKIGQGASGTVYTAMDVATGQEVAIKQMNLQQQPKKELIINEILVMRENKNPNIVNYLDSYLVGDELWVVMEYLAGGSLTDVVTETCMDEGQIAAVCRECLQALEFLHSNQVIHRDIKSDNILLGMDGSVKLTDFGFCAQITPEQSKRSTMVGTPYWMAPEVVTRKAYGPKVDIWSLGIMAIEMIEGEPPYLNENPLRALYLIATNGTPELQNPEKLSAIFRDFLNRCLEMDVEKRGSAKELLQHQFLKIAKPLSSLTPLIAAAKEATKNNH
Chain of CDC2L2 (human) (Q9UQ88 whole entry, looked up): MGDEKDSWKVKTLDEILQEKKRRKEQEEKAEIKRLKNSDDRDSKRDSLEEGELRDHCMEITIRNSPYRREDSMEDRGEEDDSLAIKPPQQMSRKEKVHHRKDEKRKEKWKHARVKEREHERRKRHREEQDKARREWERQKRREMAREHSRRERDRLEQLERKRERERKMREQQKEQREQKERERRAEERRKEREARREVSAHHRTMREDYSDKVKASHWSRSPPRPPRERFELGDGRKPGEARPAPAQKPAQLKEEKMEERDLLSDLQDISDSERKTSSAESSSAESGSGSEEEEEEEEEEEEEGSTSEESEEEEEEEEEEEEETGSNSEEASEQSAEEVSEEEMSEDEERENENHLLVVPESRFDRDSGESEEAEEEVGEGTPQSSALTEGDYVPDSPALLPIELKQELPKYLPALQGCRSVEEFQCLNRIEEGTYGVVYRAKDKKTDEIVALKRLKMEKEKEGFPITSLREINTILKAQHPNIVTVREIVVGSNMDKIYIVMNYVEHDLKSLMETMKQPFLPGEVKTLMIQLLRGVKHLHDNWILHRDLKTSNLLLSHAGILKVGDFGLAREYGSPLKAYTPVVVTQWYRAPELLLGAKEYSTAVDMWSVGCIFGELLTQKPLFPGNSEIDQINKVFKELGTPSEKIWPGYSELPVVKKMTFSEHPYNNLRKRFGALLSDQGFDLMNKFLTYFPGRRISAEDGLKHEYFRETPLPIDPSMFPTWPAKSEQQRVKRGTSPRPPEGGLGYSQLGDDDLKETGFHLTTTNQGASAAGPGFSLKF
Chain of ACVR2A (human) (P27037 whole entry, looked up): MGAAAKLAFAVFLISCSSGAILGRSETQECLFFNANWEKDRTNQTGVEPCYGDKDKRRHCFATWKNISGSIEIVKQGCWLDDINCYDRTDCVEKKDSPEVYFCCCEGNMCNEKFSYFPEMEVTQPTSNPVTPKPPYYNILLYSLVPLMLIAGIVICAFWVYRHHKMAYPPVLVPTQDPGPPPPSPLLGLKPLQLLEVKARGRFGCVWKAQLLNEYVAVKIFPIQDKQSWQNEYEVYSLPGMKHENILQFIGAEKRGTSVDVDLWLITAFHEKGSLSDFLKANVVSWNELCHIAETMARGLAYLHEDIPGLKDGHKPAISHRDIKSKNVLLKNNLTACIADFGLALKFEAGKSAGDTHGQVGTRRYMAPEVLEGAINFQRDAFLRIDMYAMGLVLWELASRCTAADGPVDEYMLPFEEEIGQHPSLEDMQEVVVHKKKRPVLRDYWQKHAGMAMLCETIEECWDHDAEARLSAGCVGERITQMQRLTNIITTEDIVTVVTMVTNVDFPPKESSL
Chain of NEK4 (human) (P51957 whole entry, looked up): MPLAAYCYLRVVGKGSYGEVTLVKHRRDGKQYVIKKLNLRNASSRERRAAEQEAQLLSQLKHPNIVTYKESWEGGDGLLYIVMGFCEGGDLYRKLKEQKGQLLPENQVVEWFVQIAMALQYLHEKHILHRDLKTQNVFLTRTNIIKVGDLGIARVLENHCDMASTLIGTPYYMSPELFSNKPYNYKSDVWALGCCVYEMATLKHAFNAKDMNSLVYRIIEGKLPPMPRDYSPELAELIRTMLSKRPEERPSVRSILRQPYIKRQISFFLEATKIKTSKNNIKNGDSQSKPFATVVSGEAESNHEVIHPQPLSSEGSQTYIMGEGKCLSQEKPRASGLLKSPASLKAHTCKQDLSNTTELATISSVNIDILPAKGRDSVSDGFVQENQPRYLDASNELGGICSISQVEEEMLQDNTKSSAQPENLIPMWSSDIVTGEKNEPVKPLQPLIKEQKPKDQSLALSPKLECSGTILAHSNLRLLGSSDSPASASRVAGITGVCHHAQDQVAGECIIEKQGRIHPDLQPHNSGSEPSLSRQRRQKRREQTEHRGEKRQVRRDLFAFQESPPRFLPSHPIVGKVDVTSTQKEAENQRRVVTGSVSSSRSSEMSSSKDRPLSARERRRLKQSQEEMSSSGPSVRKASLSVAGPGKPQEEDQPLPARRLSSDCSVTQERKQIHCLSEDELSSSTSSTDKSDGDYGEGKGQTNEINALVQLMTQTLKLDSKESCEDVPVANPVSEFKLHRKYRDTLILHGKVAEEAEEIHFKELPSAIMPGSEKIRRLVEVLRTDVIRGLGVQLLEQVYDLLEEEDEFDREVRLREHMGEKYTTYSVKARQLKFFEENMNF
Chain of PKMYT1 (human) (Q99640 whole entry, looked up): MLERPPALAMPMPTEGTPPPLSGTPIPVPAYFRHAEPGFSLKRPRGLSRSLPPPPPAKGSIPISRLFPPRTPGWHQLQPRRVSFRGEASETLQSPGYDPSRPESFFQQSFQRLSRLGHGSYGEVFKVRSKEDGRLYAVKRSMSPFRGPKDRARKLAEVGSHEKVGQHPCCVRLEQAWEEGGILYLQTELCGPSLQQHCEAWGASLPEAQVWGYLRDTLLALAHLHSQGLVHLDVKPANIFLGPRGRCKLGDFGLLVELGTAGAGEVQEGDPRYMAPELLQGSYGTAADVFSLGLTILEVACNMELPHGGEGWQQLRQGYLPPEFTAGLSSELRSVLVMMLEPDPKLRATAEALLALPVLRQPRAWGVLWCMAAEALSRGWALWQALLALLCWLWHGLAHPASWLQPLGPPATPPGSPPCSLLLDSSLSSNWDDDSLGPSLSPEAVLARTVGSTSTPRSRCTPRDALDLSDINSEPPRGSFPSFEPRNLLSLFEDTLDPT
Chain of FGFR1 (human) (P11362 whole entry, looked up): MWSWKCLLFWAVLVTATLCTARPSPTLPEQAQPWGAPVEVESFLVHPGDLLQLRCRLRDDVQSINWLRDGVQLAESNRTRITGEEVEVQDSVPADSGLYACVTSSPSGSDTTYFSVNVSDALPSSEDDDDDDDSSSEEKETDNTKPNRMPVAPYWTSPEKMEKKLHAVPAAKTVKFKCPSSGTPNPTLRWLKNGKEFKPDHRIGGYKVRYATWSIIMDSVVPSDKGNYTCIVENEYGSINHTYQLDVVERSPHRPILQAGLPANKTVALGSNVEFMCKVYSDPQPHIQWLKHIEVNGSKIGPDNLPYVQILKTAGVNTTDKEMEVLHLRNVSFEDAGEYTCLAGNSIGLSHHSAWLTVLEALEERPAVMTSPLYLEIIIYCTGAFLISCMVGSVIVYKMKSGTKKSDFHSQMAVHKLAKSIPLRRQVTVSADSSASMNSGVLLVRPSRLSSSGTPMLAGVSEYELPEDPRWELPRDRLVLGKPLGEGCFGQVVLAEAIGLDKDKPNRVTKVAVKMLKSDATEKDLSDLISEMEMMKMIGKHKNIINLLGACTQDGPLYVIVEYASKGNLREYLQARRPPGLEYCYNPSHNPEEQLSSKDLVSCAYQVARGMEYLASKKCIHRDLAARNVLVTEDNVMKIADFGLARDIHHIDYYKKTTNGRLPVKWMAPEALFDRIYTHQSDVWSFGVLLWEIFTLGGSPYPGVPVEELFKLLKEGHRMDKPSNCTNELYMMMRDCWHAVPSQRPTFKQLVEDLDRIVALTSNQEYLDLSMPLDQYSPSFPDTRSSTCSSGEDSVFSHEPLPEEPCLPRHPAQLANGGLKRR
Chain of CDK14 (human) (O94921 whole entry, looked up): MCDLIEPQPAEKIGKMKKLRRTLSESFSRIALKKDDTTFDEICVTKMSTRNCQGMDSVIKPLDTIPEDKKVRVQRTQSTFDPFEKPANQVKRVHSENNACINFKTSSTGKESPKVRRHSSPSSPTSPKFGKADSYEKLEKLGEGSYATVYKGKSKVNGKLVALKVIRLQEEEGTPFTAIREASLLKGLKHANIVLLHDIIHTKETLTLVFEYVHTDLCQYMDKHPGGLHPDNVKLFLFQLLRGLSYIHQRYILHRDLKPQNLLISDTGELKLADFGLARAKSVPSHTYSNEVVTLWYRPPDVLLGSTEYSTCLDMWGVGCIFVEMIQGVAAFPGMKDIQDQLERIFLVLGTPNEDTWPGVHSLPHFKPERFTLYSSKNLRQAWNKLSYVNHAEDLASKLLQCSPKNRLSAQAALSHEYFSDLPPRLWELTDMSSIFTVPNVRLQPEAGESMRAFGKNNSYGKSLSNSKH

Work on `N#C/C(=C1/Nc2ccccc2S1)c1ccnc(NCCc2cccnc2)n1` yielded a kinase still bound, per cent of control (MAP2K6 (human)) of 64%, a kinase still bound, per cent of control (CDC2L2 (human)) of 85% and a kinase still bound, per cent of control (EPHB1 (human)) of 100%. The kinase still bound, per cent of control (STK24 (human)) was 80%, the kinase still bound, per cent of control (STK11 (human)) was 77% and the kinase still bound, per cent of control (FGFR1 (human)) was 98%. It also gave a kinase still bound, per cent of control (RAF1 (human)) of 100%, a kinase still bound, per cent of control (ACVR2A (human)) of 86% and a kinase still bound, per cent of control (AKT1 (human)) of 100%. For the same molecule, the kinase still bound, per cent of control (STK25 (human)) was 60%, the kinase still bound, per cent of control (MYLK3 (human)) was 100% and the kinase still bound, per cent of control (CAMK2A (human)) was 46%. It also gave a kinase still bound, per cent of control (DMPK (human)) of 100%, a kinase still bound, per cent of control (CDK14 (human)) of 100% and a kinase still bound, per cent of control (TNIK (human)) of 70%. The kinase still bound, per cent of control (SRC (human)) was 100%, the kinase still bound, per cent of control (AKT3 (human)) was 100% and the kinase still bound, per cent of control (DSTYK (human)) was 51%. The kinase still bound, per cent of control (RIPK4 (human)) was 8%, the kinase still bound, per cent of control (NEK4 (human)) was 100% and the kinase still bound, per cent of control (PKMYT1 (human)) was 95%. The kinase still bound, per cent of control (MELK (human)) was 100%, the kinase still bound, per cent of control (MAP4K5 (human)) was 94% and the kinase still bound, per cent of control (ABL2 (human)) was 100%. It also gave a kinase still bound, per cent of control (ULK2 (human)) of 83%, a kinase still bound, per cent of control (PIK3C2G (human)) of 8.8% and a kinase still bound, per cent of control (SRPK3 (human)) of 23%. It also gave a kinase still bound, per cent of control (MAPK1 (human)) of 84%, a kinase still bound, per cent of control (CLK3 (human)) of 76% and a kinase still bound, per cent of control (WEE2 (human)) of 100%. It also gave a kinase still bound, per cent of control [1] of 100%, a kinase still bound, per cent of control (BMPR1B (human)) of 18% and a kinase still bound, per cent of control (PAK3 (human)) of 100%. The kinase still bound, per cent of control (NIM1 (human)) was 100%, the kinase still bound, per cent of control (CSNK1E (human)) was 60% and the kinase still bound, per cent of control (PAK1 (human)) was 77%. For the same molecule, the kinase still bound, per cent of control (ERBB4 (human)) was 63%, the kinase still bound, per cent of control (GSK3A (human)) was 0.6% and the kinase still bound, per cent of control (EPHB4 (human)) was 100%. For the same molecule, the kinase still bound, per cent of control (AXL (human)) was 100% and the kinase still bound, per cent of control (DYRK1B (human)) was 23%.
Work on `N#Cc1cc(-c2ccnc(Nc3ccc(-n4cnc(-c5cccnc5)n4)cc3)n2)cc(N2CCOCC2)c1` yielded a kinase still bound, per cent of control (MAP2K6 (human)) of 41%, a kinase still bound, per cent of control (CDC2L2 (human)) of 25% and a kinase still bound, per cent of control (EPHB1 (human)) of 90%. For the same molecule, the kinase still bound, per cent of control (STK24 (human)) was 70%, the kinase still bound, per cent of control (STK11 (human)) was 11% and the kinase still bound, per cent of control (FGFR1 (human)) was 93%. It also gave a kinase still bound, per cent of control (RAF1 (human)) of 91%, a kinase still bound, per cent of control (ACVR2A (human)) of 16% and a kinase still bound, per cent of control (AKT1 (human)) of 100%. The kinase still bound, per cent of control (STK25 (human)) was 64%, the kinase still bound, per cent of control (MYLK3 (human)) was 100% and the kinase still bound, per cent of control (CAMK2A (human)) was 16%. For the same molecule, the kinase still bound, per cent of control (DMPK (human)) was 85%, the kinase still bound, per cent of control (CDK14 (human)) was 35% and the kinase still bound, per cent of control (TNIK (human)) was 26%. It also gave a kinase still bound, per cent of control (SRC (human)) of 38%, a kinase still bound, per cent of control (AKT3 (human)) of 100% and a kinase still bound, per cent of control (DSTYK (human)) of 76%. For the same molecule, the kinase still bound, per cent of control (RIPK4 (human)) was 53%, the kinase still bound, per cent of control (NEK4 (human)) was 100% and the kinase still bound, per cent of control (PKMYT1 (human)) was 65%. For the same molecule, the kinase still bound, per cent of control (MELK (human)) was 100%, the kinase still bound, per cent of control (MAP4K5 (human)) was 27% and the kinase still bound, per cent of control (ABL2 (human)) was 67%. For the same molecule, the kinase still bound, per cent of control (ULK2 (human)) was 90%, the kinase still bound, per cent of control (PIK3C2G (human)) was 100% and the kinase still bound, per cent of control (SRPK3 (human)) was 23%. It also gave a kinase still bound, per cent of control (MAPK1 (human)) of 100%, a kinase still bound, per cent of control (CLK3 (human)) of 59% and a kinase still bound, per cent of control (WEE2 (human)) of 100%. The kinase still bound, per cent of control [1] was 100%, the kinase still bound, per cent of control (BMPR1B (human)) was 28% and the kinase still bound, per cent of control (PAK3 (human)) was 100%. It also gave a kinase still bound, per cent of control (NIM1 (human)) of 58%, a kinase still bound, per cent of control (CSNK1E (human)) of 95% and a kinase still bound, per cent of control (PAK1 (human)) of 65%. For the same molecule, the kinase still bound, per cent of control (ERBB4 (human)) was 91%, the kinase still bound, per cent of control (GSK3A (human)) was 3.5% and the kinase still bound, per cent of control (EPHB4 (human)) was 70%. The kinase still bound, per cent of control (AXL (human)) was 28% and the kinase still bound, per cent of control (DYRK1B (human)) was 10%.

Reference: the kinase profiling compilation of Christmann-Franck et al. (2016)
